Assay results taken from publication PMC5622171 (Nature Communications, 2017).

Experiments:
hPXR = assay: Liver Cyp3a11 mRNA and protein in hPXR transgenic mice; format: in vivo, mouse; conditions: hPXR humanized transgenic mice, SPA70 200 mg kg−1, RIF 10 mg kg−1, 72 h
Experimental: Cells were rinsed once with cold PBS then lysed in RIPA lysis buffer (Thermo Fisher Scientific) containing protease inhibitor (Roche). Mouse liver samples were homogenized in 500 μl of cold RIPA lysis buffer in a Bullet Blender Blue homogenizer (Next Advance, Averill Park, NY). Then, 25 μg of total protein lysates were loaded onto NuPAGE 4%–12% Bis-Tris gels (Invitrogen) with NuPAGE MES SDS running buffer (Invitrogen). The proteins were transferred from the gel to a nitrocellulose membrane by using the iBlot gel-transfer system (Invitrogen). […] The relative intensity of each protein band was then determined by normalizing the intensity of each protein band to that of actin. […]
The method used for RNA extraction and polymerase chain reaction with reverse transcription (RT-PCR) has been described previously. […] Quantitative RT-PCR was performed in accordance with the manufacturer’s protocol by using TaqMan gene expression assays (Thermo Fisher Scientific) specific for the hPXR and Cyp3a11 genes, with GAPDH or 18s rRNA as the reference gene, in an ABI 7900HT Fast Real-Time PCR System (Thermo Fisher Scientific). […] The comparative threshold (Ct) method was used for the relative quantification of gene expression by the following formulae: ΔCt = Ct (test gene) − Ct (GAPDH); ΔΔCt (test gene) = ΔCt (test gene in treatment group) − ΔCt (test gene in vehicle control group). […]

hPXR with SRC-1 = molecular target: T1, hPXR with SRC-1 (Homo sapiens, UniProt O75469); assay: Mammalian two-hybrid assay; format: cell-based; conditions: LS180 cells; SPA70 10 µM, SJB7 4 µM
T1 construct: expressed in transfected cells; host or cells: LS180
T1 sequence (O75469 whole entry): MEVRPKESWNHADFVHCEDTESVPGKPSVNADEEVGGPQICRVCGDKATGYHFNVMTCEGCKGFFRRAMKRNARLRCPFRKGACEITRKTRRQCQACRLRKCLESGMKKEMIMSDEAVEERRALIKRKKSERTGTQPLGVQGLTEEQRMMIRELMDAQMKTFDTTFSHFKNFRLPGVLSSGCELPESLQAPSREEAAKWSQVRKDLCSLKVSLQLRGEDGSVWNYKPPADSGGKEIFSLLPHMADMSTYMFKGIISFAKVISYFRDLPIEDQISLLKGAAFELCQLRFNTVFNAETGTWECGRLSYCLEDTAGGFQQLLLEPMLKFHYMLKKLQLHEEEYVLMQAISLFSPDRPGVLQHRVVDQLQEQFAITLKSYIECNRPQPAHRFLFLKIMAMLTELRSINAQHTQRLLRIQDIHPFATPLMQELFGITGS
T1 sequence (Q15788 whole entry partner): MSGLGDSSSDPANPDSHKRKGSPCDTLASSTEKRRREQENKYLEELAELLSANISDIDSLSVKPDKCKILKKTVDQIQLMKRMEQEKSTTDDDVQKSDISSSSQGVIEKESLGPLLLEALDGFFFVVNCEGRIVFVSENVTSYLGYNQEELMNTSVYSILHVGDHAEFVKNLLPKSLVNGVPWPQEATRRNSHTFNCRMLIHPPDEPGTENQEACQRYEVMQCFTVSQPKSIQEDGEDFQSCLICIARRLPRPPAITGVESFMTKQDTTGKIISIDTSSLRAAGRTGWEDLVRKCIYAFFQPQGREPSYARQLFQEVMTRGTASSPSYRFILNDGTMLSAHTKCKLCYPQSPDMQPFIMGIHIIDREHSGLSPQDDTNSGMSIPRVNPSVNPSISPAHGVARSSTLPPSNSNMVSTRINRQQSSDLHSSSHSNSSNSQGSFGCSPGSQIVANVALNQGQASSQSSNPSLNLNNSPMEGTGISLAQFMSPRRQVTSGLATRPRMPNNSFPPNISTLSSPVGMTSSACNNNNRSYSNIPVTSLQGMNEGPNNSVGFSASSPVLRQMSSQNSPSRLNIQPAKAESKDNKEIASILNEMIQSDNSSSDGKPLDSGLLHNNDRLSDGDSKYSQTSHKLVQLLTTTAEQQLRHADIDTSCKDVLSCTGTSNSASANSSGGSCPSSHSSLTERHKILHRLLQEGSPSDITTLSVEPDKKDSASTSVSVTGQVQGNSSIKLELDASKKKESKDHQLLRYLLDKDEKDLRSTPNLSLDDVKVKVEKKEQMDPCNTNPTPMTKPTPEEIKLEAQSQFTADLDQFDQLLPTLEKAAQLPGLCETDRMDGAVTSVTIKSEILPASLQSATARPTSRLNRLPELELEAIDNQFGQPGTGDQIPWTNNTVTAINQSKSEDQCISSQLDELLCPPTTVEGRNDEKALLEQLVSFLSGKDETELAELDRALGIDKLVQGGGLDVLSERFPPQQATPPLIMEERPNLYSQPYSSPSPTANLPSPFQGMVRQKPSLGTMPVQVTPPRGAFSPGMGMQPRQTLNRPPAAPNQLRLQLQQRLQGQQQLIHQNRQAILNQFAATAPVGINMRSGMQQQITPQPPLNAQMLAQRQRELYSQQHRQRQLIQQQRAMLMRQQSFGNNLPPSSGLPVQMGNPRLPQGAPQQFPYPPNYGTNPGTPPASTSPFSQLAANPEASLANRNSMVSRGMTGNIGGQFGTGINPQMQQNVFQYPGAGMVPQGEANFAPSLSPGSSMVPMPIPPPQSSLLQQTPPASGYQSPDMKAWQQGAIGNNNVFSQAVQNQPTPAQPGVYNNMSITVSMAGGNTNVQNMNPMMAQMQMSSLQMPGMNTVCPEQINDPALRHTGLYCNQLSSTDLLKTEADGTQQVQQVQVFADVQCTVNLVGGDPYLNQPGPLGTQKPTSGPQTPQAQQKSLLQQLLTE
From the text: (§1) The mammalian two-hybrid assay method has been described previously. Briefly, the CheckMate mammalian two-hybrid system (Promega) was used to evaluate the association between hPXR and its co-regulators. LS180 cells were co-transfected with an hPXR plasmid (pACT-hPXR, pACT-hPXRM429A or pACT-hPXRF429A), a coregulator plasmid (pBIND-SRC-1, pBIND-TIF2, pBIND-SMRTτ [amino acids 2077–2471], or pBIND-mNCoR [amino acids 1958–2401]), and a GAL4 firefly luciferase reporter plasmid (pG5-luc). The Renilla luciferase is constitutively expressed from the pBIND vector, and served as an internal transfection control. The activity of the firefly and Renilla luciferase was measured by using the Dual-Glo Luciferase Assay (Promega), and the relative luciferase activity of pG5-luc was determined by normalizing the activity of firefly luciferase to that of Renilla luciferase.

hPXR with TIF2 = molecular target: T2, hPXR with TIF2 (Homo sapiens, UniProt O75469); assay: Mammalian two-hybrid assay; format: cell-based; conditions: LS180 cells; SPA70 10 µM, SJB7 4 µM
T2 construct: expressed in transfected cells; host or cells: LS180
T2 sequence (O75469 whole entry): as the sequence (O75469 whole entry) above
T2 sequence (Q15596 whole entry partner): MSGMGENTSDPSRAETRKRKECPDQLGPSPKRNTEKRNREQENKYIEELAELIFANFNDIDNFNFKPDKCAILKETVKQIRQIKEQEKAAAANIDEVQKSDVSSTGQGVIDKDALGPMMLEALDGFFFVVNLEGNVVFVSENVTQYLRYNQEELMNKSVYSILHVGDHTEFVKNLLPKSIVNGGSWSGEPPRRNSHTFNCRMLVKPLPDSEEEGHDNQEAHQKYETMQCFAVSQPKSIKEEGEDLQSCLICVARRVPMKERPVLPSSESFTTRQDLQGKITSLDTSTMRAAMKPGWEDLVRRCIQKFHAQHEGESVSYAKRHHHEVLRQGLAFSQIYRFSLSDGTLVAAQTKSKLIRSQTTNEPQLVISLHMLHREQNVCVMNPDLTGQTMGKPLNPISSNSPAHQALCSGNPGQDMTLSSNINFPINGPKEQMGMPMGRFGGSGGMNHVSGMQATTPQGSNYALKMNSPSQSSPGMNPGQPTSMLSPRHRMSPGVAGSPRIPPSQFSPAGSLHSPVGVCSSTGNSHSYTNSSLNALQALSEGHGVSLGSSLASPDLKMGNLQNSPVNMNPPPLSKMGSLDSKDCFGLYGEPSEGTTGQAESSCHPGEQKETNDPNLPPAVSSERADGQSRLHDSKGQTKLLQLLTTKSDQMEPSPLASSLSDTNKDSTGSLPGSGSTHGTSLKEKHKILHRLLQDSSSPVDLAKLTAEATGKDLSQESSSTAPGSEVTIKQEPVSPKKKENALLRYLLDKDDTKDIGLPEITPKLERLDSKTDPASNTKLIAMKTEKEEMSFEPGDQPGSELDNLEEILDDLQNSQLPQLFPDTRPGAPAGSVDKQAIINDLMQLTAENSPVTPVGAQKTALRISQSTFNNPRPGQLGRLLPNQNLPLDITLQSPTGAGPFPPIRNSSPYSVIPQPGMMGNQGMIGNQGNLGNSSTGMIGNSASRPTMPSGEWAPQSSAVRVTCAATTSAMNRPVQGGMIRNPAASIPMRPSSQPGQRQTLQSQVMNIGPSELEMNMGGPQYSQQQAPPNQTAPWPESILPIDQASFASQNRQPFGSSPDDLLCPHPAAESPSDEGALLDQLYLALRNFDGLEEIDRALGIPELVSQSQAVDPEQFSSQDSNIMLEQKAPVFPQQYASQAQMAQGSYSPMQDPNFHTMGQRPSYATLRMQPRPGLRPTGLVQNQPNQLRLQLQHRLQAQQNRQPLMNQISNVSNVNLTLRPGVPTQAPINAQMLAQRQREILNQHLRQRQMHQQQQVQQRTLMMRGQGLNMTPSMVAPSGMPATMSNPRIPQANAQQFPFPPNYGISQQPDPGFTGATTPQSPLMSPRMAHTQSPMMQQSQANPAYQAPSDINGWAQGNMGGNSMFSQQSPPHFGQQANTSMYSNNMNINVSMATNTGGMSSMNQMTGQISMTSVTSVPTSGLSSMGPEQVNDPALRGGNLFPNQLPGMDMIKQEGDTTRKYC
From the text: as §1

Cyp3a11 = assay: Loss of righting reflex (LORR) assay in hPXR-tg mice; format: in vivo, mouse; conditions: hPXR humanized mice, SPA70 200 mg kg−1 i.p., RIF 10 mg kg−1
Experimental: The LORR assay method has been described previously, by using 2,2,2-tribromoethanol, a substrate of mouse Cyp3a11 which is induced by hPXR. Mice were first injected intraperitoneally with 250 mg kg^−1 of 2,2,2-tribromoethanol, then placed on their backs under a heat lamp as soon as they lost their righting reflex. The LORR duration was defined as the time period from the start of LORR to when mice could right themselves twice within 1 min, after being placed on their backs. For each mouse, a baseline LORR duration was first established before oral administration of vehicle or compounds. […] A paired Student’s t-test was used to compare the LORR duration at baseline and after treatment. A P-value of less than 0.05 was considered to indicate a significant difference between the compared groups.

In the case of `COc1ccc(OC)c(-n2nnc(S(=O)(=O)c3ccc(C(C)(C)C)cc3)c2C)c1` [SPA70], the “Effect on rifampicin-induced expression of Cyp3a11 (mRNA and protein)” value (hPXR) is reported as “effectively blocked the rifampicin-induced expression of Cyp3a11”, the “Increase of association of hPXR with SRC-1” value (hPXR with SRC-1) is reported as “did not affect” and the “Increase of association of hPXR with TIF2” value (hPXR with TIF2) is reported as “did not affect”. For the same compound, the “Effect on rifampicin-induced metabolism of 2,2,2-tribromoethanol by Cyp3a11 (LORR)” value (Cyp3a11) was “effectively blocked”.
